Test results as given in publication PMC10050424, “Structural basis of the substrate recognition and inhibition mechanism of Plasmodium falciparum nucleoside transporter PfENT1” (Nature Communications, 2023).
Where “and” joins values, the source holds several entries; their conditions need not be identical. Equal entries are not always repeated. Where two headings read alike, the source gives them in different places.

What was measured:
PfENT1 R291A = target: T1, PfENT1 R291A (Plasmodium falciparum, UniProt Q8IDM6, R291A); experiment: Inosine uptake assay, yeast expressing PfENT1 R291A; assay type: cell-based; details: Fig. 3d, construct R291A
T1 construct: expressed in transfected cells; host or cells: S. cerevisiae BY4741, FUI1 deleted, PfENT1 mutant knock-in under the TEF1 promoter
Text: (§1) Codon-optimized PfENT1 (for expression in yeast) was synthesized by Sangon Biotech. The carboxyl terminus of PfENT1 was HA-tagged through PCR. The TEF1p promoter and PGK1t terminator were amplified from BY4741 genomic DNA. Overlap PCR was applied to generate the gene overexpression cassette of PfENT1 (TEF1p promoter-PfENT1-PGK1t terminator). The two 600-bp homologous arms corresponding to the upstream and downstream regions of the FUI1 gene were amplified from BY4741 genomic DNA. The gene cassette of the ‘TEF1p promoter-PfENT1-PGK1t terminator’ together with the two homologous arms was cloned into the PUC19 plasmid through Gibson assembly, generating the final plasmid PUC19: PfENT1. PfENT1 mutations were generated using point mutation and verified by Sanger sequencing. The spacer targeting the FUI1 gene (5ʹ-[…]-3ʹ) was cloned into the pCas-BsaI plasmid to generate the pCas-FUI1 plasmid as described previously. […]
(§2) Cells were grown overnight in YPD medium to mid-log phase and harvested by centrifugation at 3000 × g for 5 min. […] After washing by vacuum filtration with 2 ml ice-cold 2% glucose, the radioactivity retained on the filter was incubated with 1 mL of ULTIMA GOLD scintillation fluid (Perkin Elmer, 77-15311). Counts were measured using a liquid scintillation analyzer (Perkin Elmer, Tri-Carb 5110TR). […]

PfENT1 mutant W53A = target: T2, PfENT1 mutant W53A (Plasmodium falciparum, UniProt Q8IDM6, W53A); experiment: ITC binding to PfENT1 mutant W53A
T2 construct: 10xHis (N); made in house; host or cells: Sf9 insect cells (baculovirus)
Description: (§3) For the in vitro binding assay, Sf9 cells were solubilized in lysis buffer containing 2% (w/v) n-dodecyl-β-D-maltopyranoside (DDM, Anatrace) and protease inhibitor cocktail (0.8 μM aprotinin, 2 μM pepstatin, and 5 μg/ml leupeptin) at 4 °C for 2 h. The soluble supernatant was collected via centrifugation and incubated with Ni-NTA resin (QIAGEN) at 4 °C for 1 h. The resin was washed and eluted using lysis buffer containing 0.05% (w/v) DDM and 30 mM/300 mM imidazole. The protein was further purified by size-exclusion chromatography (Superdex 200 Increase 10/300; GE Healthcare) in buffer containing 25 mM MES (pH 6.0), 150 mM NaCl, and 0.05% (w/v) DDM. The peak fractions were pooled and concentrated to 10~50 μM for the nucleoside-binding assay.
(§4) The binding affinity between wild-type and mutant PfENT1 with nucleosides and GSK4 was measured using a Micro-Cal ITC200 (Malvern). All proteins were prepared in 25 mM MES (pH 6.0), 150 mM NaCl, and 0.05% (w/v) DDM. Nucleosides (5~10 mM) and GSK4 (100-200 μM) dissolved in the same buffer were titrated against 20–50 μM PfENT1 proteins at 25 °C. PEAQ-ITC analysis software (MicroCal) was employed to analyze the data. All titrations were repeated three times.

PfENT1Y190A = target: T3, PfENT1Y190A (Plasmodium falciparum, UniProt Q8IDM6, Y190A); experiment: ITC binding to PfENT1Y190A; details: compared with wild type
T3 construct: 10xHis (N); made in house; host or cells: Sf9 insect cells (baculovirus)
T3 sequence (Q8IDM6 1-422 Y190A): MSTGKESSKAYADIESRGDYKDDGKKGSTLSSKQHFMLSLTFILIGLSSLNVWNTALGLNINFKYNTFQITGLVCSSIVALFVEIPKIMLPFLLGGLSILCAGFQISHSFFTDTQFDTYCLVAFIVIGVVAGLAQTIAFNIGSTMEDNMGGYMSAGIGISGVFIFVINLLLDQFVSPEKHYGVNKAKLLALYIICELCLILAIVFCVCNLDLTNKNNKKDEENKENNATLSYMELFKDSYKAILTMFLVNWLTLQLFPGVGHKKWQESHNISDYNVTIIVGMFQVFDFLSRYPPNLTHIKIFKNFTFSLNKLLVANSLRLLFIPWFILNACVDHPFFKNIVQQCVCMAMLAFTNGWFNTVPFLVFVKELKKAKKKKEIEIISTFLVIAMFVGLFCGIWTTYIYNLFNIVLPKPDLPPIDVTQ
Description: as §3, §4

PfENT1 Q135A = target: T4, PfENT1 Q135A (Plasmodium falciparum, UniProt Q8IDM6, Q135A); experiment: Inosine uptake assay, yeast expressing PfENT1 Q135A; assay type: cell-based; details: Fig. 3d, construct Q135A
T4 construct: expressed in transfected cells; host or cells: S. cerevisiae BY4741, FUI1 deleted, PfENT1 mutant knock-in under the TEF1 promoter
Text: as §1, §2

PfENT1 D287A = target: T5, PfENT1 D287A (Plasmodium falciparum, UniProt Q8IDM6, D287A); experiment: Inosine uptake assay, yeast expressing PfENT1 D287A; assay type: cell-based; details: Fig. 3d, construct D287A
T5 construct: expressed in transfected cells; host or cells: S. cerevisiae BY4741, FUI1 deleted, PfENT1 mutant knock-in under the TEF1 promoter
Text: as §1, §2

PfENT1 mutant Q135A = target: T6, PfENT1 mutant Q135A (Plasmodium falciparum, UniProt Q8IDM6, Q135A); experiment: ITC binding to PfENT1 mutant Q135A; details: Fig. 3c
T6 construct: 10xHis (N); made in house; host or cells: Sf9 insect cells (baculovirus)
Description: as §3, §4

PfENT1WT = target: T7, PfENT1WT (Plasmodium falciparum, UniProt Q8IDM6); experiment: biochemical; assay type: binding
T7 construct: 10xHis (N); made in house; host or cells: Sf9 insect cells (baculovirus)
Description: as §3, §4

T7 sequence (Q8IDM6 whole entry): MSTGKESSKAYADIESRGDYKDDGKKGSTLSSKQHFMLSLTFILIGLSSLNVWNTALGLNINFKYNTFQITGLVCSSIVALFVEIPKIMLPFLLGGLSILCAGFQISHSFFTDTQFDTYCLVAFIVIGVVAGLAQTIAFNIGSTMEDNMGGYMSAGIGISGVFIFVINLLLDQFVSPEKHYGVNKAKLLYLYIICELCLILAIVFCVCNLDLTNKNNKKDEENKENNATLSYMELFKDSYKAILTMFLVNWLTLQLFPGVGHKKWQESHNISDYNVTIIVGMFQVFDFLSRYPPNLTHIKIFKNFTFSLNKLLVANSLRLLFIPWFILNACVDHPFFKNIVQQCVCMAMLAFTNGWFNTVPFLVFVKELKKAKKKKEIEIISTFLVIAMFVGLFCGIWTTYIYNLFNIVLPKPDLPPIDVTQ
T2 sequence (Q8IDM6 whole entry W53A): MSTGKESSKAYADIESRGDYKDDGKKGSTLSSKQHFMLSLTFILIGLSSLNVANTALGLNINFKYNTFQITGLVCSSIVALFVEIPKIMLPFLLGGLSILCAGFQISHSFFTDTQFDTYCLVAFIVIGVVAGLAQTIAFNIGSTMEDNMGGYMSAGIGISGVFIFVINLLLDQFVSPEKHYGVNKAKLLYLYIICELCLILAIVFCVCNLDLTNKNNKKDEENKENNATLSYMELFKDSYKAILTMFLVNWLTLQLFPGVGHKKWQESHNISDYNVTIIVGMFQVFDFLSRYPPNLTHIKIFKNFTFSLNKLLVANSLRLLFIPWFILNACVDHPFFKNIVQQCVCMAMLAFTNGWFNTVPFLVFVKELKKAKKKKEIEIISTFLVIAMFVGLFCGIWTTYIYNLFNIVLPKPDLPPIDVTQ
T5 sequence (Q8IDM6 whole entry D287A): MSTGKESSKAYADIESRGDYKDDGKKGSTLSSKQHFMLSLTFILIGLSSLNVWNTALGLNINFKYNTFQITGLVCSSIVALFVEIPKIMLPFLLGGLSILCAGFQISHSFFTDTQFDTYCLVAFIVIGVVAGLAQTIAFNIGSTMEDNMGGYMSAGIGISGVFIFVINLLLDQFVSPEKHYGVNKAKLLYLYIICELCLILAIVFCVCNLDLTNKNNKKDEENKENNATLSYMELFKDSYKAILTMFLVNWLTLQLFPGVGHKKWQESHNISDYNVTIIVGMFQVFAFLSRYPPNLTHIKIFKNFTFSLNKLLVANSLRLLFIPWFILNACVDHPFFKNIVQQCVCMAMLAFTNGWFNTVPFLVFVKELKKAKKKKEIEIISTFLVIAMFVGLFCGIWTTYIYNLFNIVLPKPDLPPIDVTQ
T1 sequence (Q8IDM6 whole entry R291A): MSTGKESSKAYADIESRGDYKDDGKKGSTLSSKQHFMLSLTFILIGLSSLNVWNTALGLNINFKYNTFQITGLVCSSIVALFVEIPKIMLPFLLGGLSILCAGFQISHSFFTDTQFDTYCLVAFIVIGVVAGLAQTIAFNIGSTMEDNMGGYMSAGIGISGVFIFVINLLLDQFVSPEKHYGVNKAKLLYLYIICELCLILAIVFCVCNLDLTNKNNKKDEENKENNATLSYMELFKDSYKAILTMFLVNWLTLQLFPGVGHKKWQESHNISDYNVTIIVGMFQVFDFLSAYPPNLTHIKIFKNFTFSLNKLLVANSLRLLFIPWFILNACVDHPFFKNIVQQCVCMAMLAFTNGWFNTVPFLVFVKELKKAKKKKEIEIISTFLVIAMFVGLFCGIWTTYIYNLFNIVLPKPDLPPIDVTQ
T4 sequence (Q8IDM6 whole entry Q135A): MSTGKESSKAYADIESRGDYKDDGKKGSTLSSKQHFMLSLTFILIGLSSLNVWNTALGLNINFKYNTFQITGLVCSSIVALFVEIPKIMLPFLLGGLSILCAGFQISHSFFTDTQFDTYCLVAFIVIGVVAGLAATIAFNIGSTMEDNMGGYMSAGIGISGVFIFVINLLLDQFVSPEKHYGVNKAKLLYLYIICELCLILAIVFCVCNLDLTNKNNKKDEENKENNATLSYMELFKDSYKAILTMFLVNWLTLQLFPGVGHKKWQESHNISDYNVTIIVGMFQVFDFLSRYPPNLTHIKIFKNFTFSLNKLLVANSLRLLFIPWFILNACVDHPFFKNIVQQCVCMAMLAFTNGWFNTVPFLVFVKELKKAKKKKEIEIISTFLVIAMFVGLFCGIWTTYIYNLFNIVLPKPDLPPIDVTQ
T6 sequence (Q8IDM6 whole entry Q135A): as above

For `OC[C@H]1O[C@@H](n2cnc3c(O)ncnc32)[C@H](O)[C@@H]1O` [Inosine, inosine], the “Uptake of [3H]-inosine (Percentage of PfENT1 WT)” value (PfENT1 R291A) was “lost the transport activity”, the Kd (PfENT1 mutant W53A; Kd, Mean and Mean ± SD, source data Figure 3c, construct W53A) was 1.83 mM and the Kd (PfENT1 mutant W53A; Kd, N=3 (individual experiments), source data Figure 3c, construct W53A) was 1.9 mM and 1.94 mM and 1.65 mM. For the same compound, the Kd (PfENT1 mutant W53A; binding affinity (Kd), ITC, Fig. 3c, mutant W53A, mean ± SD (n = 3)) was 1.83 ± 0.157 mM, the “weaker binding than the wild type” value (PfENT1 mutant W53A; inosine binding, W53A versus wild type) was 30 fold and the inosine-binding affinity (PfENT1Y190A) was “similar”. The “Uptake of [3H]-inosine (Percentage of PfENT1 WT)” value (PfENT1 Q135A) was “abolished the transport activity”, the “Uptake of [3H]-inosine (Percentage of PfENT1 WT)” value (PfENT1 D287A) was “abolished the transport activity” and the “binding affinity (Kd)” value (PfENT1 mutant Q135A) was “complete abolishment”. The Kd (PfENT1WT; Kd, Mean and Mean ± SD, source data Figure 1a) was 64.7 µM, the Kd (PfENT1WT; Kd, N=3 (individual experiments), source data Figure 1a) was 52.3 µM and 64.2 µM and 77.7 µM and the Kd (PfENT1WT; binding affinity (Kd), ITC, 25 °C, pH 6.0, mean ± SD (n = 3), Fig. 1a and text) was 64.7 ± 12.7 µM. It also gave a Kd (PfENT1WT; read-out: Kd, Mean and Mean ± SD, source data Figure 1a) of 64.7 ± 12.7 µM.
